Measurements reported in patent US6184217A (Cephalon, Inc., priority 1997, dated 2001).

What was measured:
[1] = target: monoamine oxidase-A (Homo sapiens, UniProt P21397); experiment: Monoamine oxidase-A inhibition in vitro; type: biochemical; conditions: FIG. 1
[2] = system: GABA-ergic neurons in the nucleus basalis magnocellularis; experiment: Ibotenic acid lesion: glutamic acid decarboxylase-expressing (GABA-ergic) neurons in nbm; type: in vivo, Sprague-Dawley rats
Method: Compound A was tested for its ability to prevent depletion (e.g., enhance the survival) of GABA-ergic neurons in the nucleus basalis magnocellularis, using the well-established ibotenic acid lesion mode. Ibotenic acid, an excitotoxin, is known to reduce numbers of GABA-expressing neurons in the nbm region (Lindefors et al., Neurosci. Lett., 135:262-264, 1992; Shaugnessy et al., Brain Res., 637:15-26, 1994). […] The rats were then dosed with Compound A (0.03 mg/kg) via subcutaneous injection beginning 18 hours after the lesion, and continuing q.o.d. until 18 days post-lesion. […] The numbers of neurons expressing glutamic acid decarboxylase were then counted throughout the rostral-caudal extent of the nucleus basalis magnocellularis, in a region where glutamic acid decarboxylase-expressing neurons of the nbm are easily distinguished from glutamic acid decarboxylase-expressing neurons in adjacent structures (white matter medial and ventral to the globus pallidus). The results were expressed as percent glutamic acid decarboxylase-expressing neurons on the lesioned side relative to the number on the opposite, unlesioned side. The results were also calculated separately for the rostral nbm, mid-nmb, and caudal nbm.

[3] = system: uptake of catecholamines into nerve endings; experiment: Uptake of catecholamines into nerve endings; type: biochemical
[4] = system: striatal tyrosine hydroxylase (dopaminergic neurons); experiment: Striatal tyrosine hydroxylase activity in high-dose MPTP-treated mice; type: in vivo; conditions: MPTP 40 mg/kg s.c., 7 days
Method: In a separate experiment, the activities of Compound A were assessed in a high dose MPTP-mouse model. A single 40 mg/kg injection of MPTP produced a 95% depletion in striatal tyrosine hydroxylase enzyme activity 7 days post-injection. Administration of Compound A at daily doses of between 0.03 and 3.0 mg/kg reduced the magnitude of the lesion, in a dose dependent manner.
Mice were treated with MPTP (40 mg/kg; s.c.) 4-6 hrs after the first Compound A injection. Compound A was then injected every day until the end of the experiment which was 7 days in duration. Striata were assessed for tyrosine hydroxylase enzyme activity. Asterisk indicates statistically significant difference (p<0.05) from MPTP-Vehicle treated animals.

[5] = system: IL-1β; experiment: LPS-induced IL-1β in the serum of mice; type: in vivo, C57BL mice; conditions: LPS dose 1.0 ip; 30 mg/kg ip 2 h before LPS; vehicle 300 ± 87; N = 8
Method: Sixty female C57BL mice (4-6 weeks old) were divided into six groups, each with 10 animals. Three groups (1,3,5) received vehicle only (PBS containing 0.1% TEA (tetraethyl ammonium hydrochloride)), 200 μl/mouse via intraperitoneal (ip) administration. The other three groups (2,4,6) received Compound A (30 mg/kg in 200 μl, ip) of vehicle (PBS containing 10% of the ethyl ester of 12-hydroxystearic acid; solutol). Two hours later, the animals received by ip administration, 0.1 mg/kg of LPS (groups 1 & 2), 0.5 mg/kg of LPS (groups 3 & 4), and 1.0 mg/kg of LPS (groups 5 % 6). Two hours after LPS administration, all of the animals were sacrificed, and plasma samples were obtained and assayed for their […] and IL-1β content. Assays were carried out as described in Example 8.
The numbers in are the group numbers as described above. N indicates the number of animals from which plasma measurements where made. ND=not done.

[6] = system: LPS-induced death; experiment: Prevention of LPS-induced death in mice; type: in vivo; conditions: 30 mg/kg ip 2 h before LPS (2 mg/mouse)
Method: Forty mice were divided into three groups, two groups consisting of ten mice and one group of twenty mice. Administrations of vehicles, LPS, and Compound A were intraperitoneal. Group 1 (n=10) mice received vehicle (phosphate buffered saline for LPS, 200 μl/mouse) at time zero and vehicle for Compound A (200 μl/mouse) 2 hours later. Group 2 (n=10) mice received the vehicle for Compound A at zero time (200 μl/mouse) and LPS (2 mg in 200 μl/mouse) for two hours later. Group 3 (n=20) received Compound A (30 mg/kg in 200 μl of vehicle) at time zero and LPS (2 mg in 200 μl/mouse) two hours later.

[7] = system: nbm neurons; experiment: Ibotenic acid lesion: Fluoro-Gold-labeled nbm neurons; type: in vivo, Sprague-Dawley rats; conditions: 0.03 mg/kg s.c. every other day until 18 days post-lesion
Text: To test directly the ability of Compound A to prevent excitotoxic neuron death, nbm neurons in adult male Sprague-Dawley rats were first labeled with a long-lasting marker. This was done by injecting Fluoro-Gold (FG), a neuronal tracer that is taken up by nerve terminals and transported back to the cell body (Book et al., J. Neuropath. Exp. Neurology, 53:95-102, 1994), into target regions of nbm neurons in the frontal and parietal cortex. 7-10 days later the animals received lesion of the nbm unilaterally, using 5 μg of ibotenic acid. Beginning 18 hours after this lesion, the animals received Compound A (0.03 mg/kg) via subcutaneous injection, every other day until 18 days post-lesion. Tissue sections were collected throughout the entire rostral-caudal extent of the nbm on both sides of the brain, and numbers of nbm neurons with the FG label were counted. The counts were corrected for size differences using standard procedures, and the results expressed as the percent of labeled neurons in the nbm on the lesioned side of each animal relative to the number of labeled neurons in the nbm on the opposite unlesioned side of the brain.

monoamine oxidase-A, sequence (P21397 whole entry): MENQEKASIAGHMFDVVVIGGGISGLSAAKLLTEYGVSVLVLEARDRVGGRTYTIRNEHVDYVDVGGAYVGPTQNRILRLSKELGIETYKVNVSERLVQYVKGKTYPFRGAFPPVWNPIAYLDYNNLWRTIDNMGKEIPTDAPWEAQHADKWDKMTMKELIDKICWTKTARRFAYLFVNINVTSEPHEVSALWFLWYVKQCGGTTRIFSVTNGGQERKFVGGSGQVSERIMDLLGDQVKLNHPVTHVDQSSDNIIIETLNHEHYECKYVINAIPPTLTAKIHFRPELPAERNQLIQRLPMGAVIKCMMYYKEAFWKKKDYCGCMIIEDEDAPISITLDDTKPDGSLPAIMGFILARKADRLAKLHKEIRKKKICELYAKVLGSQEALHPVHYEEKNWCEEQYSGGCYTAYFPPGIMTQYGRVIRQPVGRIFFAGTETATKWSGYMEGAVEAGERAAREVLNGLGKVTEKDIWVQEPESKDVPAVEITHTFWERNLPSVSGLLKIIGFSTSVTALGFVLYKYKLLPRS

## CCSCc1ccc2c(c1)c1c3c(c4c5cc(CSCC)ccc5n5c4c1n2C1CC(O)(C(=O)OC)C5(C)O1)CNC3=O (stereo not shown) [Compound A]
[1]
  monoamine oxidase-A inhibition: not a monoamine oxidase-A inhibitor
[2]; mid-nbm or caudal nbm, 0.03 mg/kg s.c. q.o.d.
  glutamic acid decarboxylase-expressing neurons vs vehicle-only animals: No statistically significant differences
[2]; rostral nbm, 0.03 mg/kg s.c. q.o.d. until 18 days post-lesion, mean, s.e.m., p<0.05 vs vehicle (34 ± 19)
  glutamic acid decarboxylase-expressing neurons on lesioned side relative to unlesioned side: 78 (±16 s.c.m.) percent
[3]
  block of uptake of catecholamines into nerve endings: found not to inhibit monoamine oxidase A or B in vitro (FIGS. 1 and 2) or block uptake of catecholamines into nerve endings
[4]; 0.03 mg/kg daily
  % Unlesioned Control: 8 ± 2.5%
  Striatal TH Activity (± SEM): 1.8 ± 0.6
[4]; 0.3 mg/kg daily
  % Unlesioned Control: 12 ± 2.5%
  Striatal TH Activity (± SEM): 2.7 ± 0.6
[4]; 3.0 mg/kg daily
  % Unlesioned Control: 23 ± 8.0%
  Striatal TH Activity (± SEM): 5.3 ± 1.8
[5]
  IL-1β: 59 ± 19 pg/mL
[6]
  mortality one week after LPS: 80%
[6]; LPS alone 90% within 20 hours
  mortality at 20 hours after LPS: 25%
[6]; LPS alone 100% by 42 hours
  mortality at 42 hours after LPS: 75%
[7]
  effect on FG-labeled neurons at mid-lesion and caudal to the lesion: declining effect
[7]; over 400 μm from midpoint of lesion, P<0.05 (FIG. 3)
  Fluoro-Gold-labeled neurons in rostral portion of lesioned nbm vs vehicle only: significantly more FG-labeled neurons
